The source of these data is EP4680608B1, “2,6-DIHYDRO-7H-PYRAZOLO[3,4-C]PYRIDIN-7-ONE DERIVATIVES AS ANTI-MALARIAL AGENTS” (MMV Medicines for Malaria Venture, priority 2024, dated 2025).

pEC50, pIC50: −log10 of the molar value. Some results are limits rather than exact numbers.

Test [1] deals with T1, P. falciparum DHODH (Plasmodium falciparum, UniProt Q08210).
T1 construct: His6 (N); made in house; host or cells: E. coli BL21-DE3 (phage-resistant)
As to the kind of experiment: DHODH inhibition, steady-state DCIP assay (PfDHODH). It counts as biochemical. The conditions noted are these: recombinant PfDHODH, DCIP method, 25°C, 5 nM enzyme. The procedure:
(§1) Compound stocks were prepared at 10-100 mM in DMSO, and diluted working stocks in DMSO were generated as appropriate. Compounds were plated from DMSO stocks in 96 well plate format using a Tecan D300e digital dispenser to generate a 3-fold dilution series over a concentration range of 0.0003 -100 µM (or 30 µM), yielding a final DMSO concentration of 1% in the assay. The top concentration used in the dose response was determined by the initial DMSO stock concentrations:100 µM for 100 mM stocks, and 30 µM for 10 mM stocks. Triplicate rate data were collected at each inhibitor concentration. Inhibitory IC50 values were determined by fitting the data to log (inhibitor) vs response equation Y = bottom + (top - bottom)/(1 + 10A ((X - Log IC50))) in GraphPad Prism.

The subject of test [2] is P. falciparum 3D7. Kind of test: Asexual blood-stage growth inhibition assay, SYBR green method. The test is classed as cell-based. The conditions noted are these: ring-stage 3D7 parasites. The procedure:
Asexual blood-stage EC50 assays. […] Compound stocks prepared in DMSO were plated using a Tecan D300e automated low volume liquid handler. Ring-stage 3D7 or Dd2 parasites (60 µL cells) (2% hematocrit, 0.5% parasitemia, final DMSO concentration 0.5%) were added to plates, incubated with compounds over a range of concentrations in technical triplicate for 72 h at 37 °C, 5% CO2, and then frozen (-80°C) overnight before analysis. […] Data were analyzed by non-linear regression using GraphPad Prism to determine the EC50 by fitting to the built-in equation (log(inhibitor) vs response-variable slope with four parameters).

Test [3] deals with P. vivax DHODH (Plasmodium vivax, UniProt A5K1N1). As to the kind of experiment: DHODH inhibition, steady-state DCIP assay (PvDHODH). It counts as biochemical. Particulars: recombinant PvDHODH, DCIP method, 25°C, 5 nM enzyme; read-out: P. vivax DHODH (IC50).
P. vivax DHODH, sequence (A5K1N1 entry or part of it): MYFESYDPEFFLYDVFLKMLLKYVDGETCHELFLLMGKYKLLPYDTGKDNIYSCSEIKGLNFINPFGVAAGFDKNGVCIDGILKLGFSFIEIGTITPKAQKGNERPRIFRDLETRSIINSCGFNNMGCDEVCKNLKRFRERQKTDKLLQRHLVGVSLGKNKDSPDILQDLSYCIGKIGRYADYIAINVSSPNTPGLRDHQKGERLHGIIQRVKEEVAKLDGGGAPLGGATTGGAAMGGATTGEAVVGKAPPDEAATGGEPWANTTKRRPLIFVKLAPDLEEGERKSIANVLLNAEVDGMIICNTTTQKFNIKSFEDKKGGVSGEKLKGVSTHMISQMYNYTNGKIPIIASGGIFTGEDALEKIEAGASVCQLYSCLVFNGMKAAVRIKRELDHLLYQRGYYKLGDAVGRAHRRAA
From the text: (§2) DOI: 10.1074/jbc.M206854200).
(§3) Proteins were expressed and purified on a Pharmacia FPLC using HisTrap HP column chromatography followed by gel filtration chromatography on a Pharmacia HiLoad 16/600 Superdex 200 column, and protein concentration determined based on OD280 using the previously described extinction coefficients (Kokkonda et al., 2020, J Med Chem, 63 (9), 4929-4956. DOI: 10.1021/acs.jmedchem.0c00311). Purified proteins were >95% pure based on SDS-PAGE analysis.
(§4) DHODH activity was monitored in a steady-state assay using the 2,6-dichloroindophenol (DCIP) method at 25°C in assay buffer (100 mM HEPES, pH 8.0, 150 mM NaCl, 1% glycerol, 0.1% Triton X-100 reduced) plus substrates 20 µM CoQD, 200 µM DHO, 120 µM DCIP, and 5 nM enzyme as previously described (Malmquist et al, 2008, Biochemistry, 47 (8), 2466-2475. DOI: 10.1021/bi702218c).
as §1, with “Prism. DSM265 ^2 was plated as an assay control in all studies.” for “Prism.”

Test [4] concerns the target T2, Human DHODH (Homo sapiens, UniProt Q02127).
T2 construct: C-terminal His6-tagged HsDHODH residues 29-395 in pET-22b (start ^29MATGDE); His6 (C); made in house; host or cells: E. coli BL21-DE3 (phage-resistant)
Kind of test: DHODH inhibition, steady-state DCIP assay (human DHODH). The test is classed as biochemical. The conditions noted are these: recombinant HsDHODH, DCIP method, 25°C, 5 nM enzyme; top concentration 100 µM or 30 µM.
From the text: as §2, §3, §4
as §1, with “Prism. DSM265 ^2 was plated as an assay control in all studies.” for “Prism.”

Where [5] appears, read: Plasmodium falciparum, 3D7, 72 h.

T1 sequence (Q08210 158-569): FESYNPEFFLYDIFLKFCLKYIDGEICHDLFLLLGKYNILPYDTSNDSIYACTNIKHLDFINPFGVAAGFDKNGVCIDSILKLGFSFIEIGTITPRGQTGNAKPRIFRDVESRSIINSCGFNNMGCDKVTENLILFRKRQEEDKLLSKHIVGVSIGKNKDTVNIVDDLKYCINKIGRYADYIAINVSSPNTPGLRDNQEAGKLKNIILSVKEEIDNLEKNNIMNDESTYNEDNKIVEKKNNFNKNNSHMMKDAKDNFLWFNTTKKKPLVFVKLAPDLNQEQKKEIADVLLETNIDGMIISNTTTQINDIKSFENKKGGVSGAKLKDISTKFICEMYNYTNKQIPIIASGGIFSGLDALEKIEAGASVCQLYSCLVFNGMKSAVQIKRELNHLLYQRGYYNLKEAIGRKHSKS
T2 sequence (Q02127 29-395): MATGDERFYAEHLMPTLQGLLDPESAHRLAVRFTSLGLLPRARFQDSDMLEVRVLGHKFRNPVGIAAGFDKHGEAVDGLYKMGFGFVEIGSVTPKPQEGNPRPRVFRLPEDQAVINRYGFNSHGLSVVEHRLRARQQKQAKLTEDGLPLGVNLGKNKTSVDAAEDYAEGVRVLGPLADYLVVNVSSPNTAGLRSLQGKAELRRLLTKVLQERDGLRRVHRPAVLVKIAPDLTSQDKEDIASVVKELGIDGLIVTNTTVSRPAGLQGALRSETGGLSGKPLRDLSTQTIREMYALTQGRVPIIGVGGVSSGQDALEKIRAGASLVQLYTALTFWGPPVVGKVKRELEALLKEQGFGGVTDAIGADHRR

In the case of `Cn1nc2c(=O)n(C3CC3)cnc2c1[C@](C)(N)c1ccc(C(F)(F)F)c(Cl)c1` (single isomer, unassigned) [4-20], the figures for the pIC50 in test [1], in test [3] and in test [4] were 8.09, 8.08 and 4.70, respectively. Moreover, the pEC50 in test [2] (setting [5]) is 9.36.
With `CCn1ccc2c([C@@](O)(CC)c3cnc(C(F)(F)F)c(Cl)c3)n(C)nc2c1=O` (single isomer, unassigned) [1-42], the pIC50 in test [1] was 7.89; in test [3], 8.10; in test [4], 4.39. In addition, the pEC50 in test [2] (setting [5]) is 9.31.
Turning to `Cn1nc2c(=O)n(C3CC3)cnc2c1[C@](O)(c1ccc(C(F)F)c(C#N)c1)C(F)(F)F` (single isomer, unassigned) [5-54], the values for the pIC50 in test [1], in test [3] and in test [4] were 7.36, 8.46 and less than 4.52, respectively. The compound further showed a pEC50 in test [2] (setting [5]) of 8.52.
In the same order, the values of `Cn1nc2c(=O)n(C3CC3)ccc2c1[C@](N)(c1ccc(C(F)(F)F)c(C#N)c1)C(F)(F)F` (single isomer, unassigned) [5-45] are 8.09, 8.07, 4.52 and 9.07.
The matching figures for `Cn1nc2c(=O)n(C3CC3)cnc2c1[C@](O)(c1cnc(C(F)(F)F)c(Cl)c1)C(F)(F)F` (single isomer, unassigned) [5-3]: 7.74, 7.55, less than 4.52 and 8.77.
Turning to `CCn1ccc2c([C@](C)(O)c3cnc(C(F)(F)F)c(Cl)c3)n(C)nc2c1=O` (single isomer, unassigned) [1-36], the negative-log IC50 (pIC50) in test [1] is 7.35; in test [3], 8.04; in test [4] it was less than 4.00. Further, the pEC50 in test [2] (setting [5]) is 8.85.
In the same order, the values of `Cn1nc2c(=O)n(C3CC3)ncc2c1[C@](O)(c1ccc(C(F)(F)F)c(Cl)c1)C(F)(F)F` (single isomer, unassigned) [5-15] are 8.07, 8.03, 4.62 and 9.54.
For `CC[C@@](N)(c1ccc(C(F)(F)F)c(Cl)c1)c1c2ccn(C3CC3)c(=O)c2nn1C` (single isomer, unassigned) [4-8], the results for the negative logarithm of the IC50 (pIC50) in test [1], in test [3] and in test [4] were 8.03, 8.21 and 6.00, respectively. Besides, the negative-log EC50 (pEC50) in test [2] (setting [5]) is 8.96.
In the case of `Cn1nc2c(=O)n(C3CC3)ccc2c1[C@](O)(c1ccc(F)c(Cl)c1)C1CC1` (single isomer, unassigned) [1-18], the pIC50 was 7.92 in test [1], 7.96 in test [3] and 4.66 in test [4]. Also, the pEC50 in test [2] (setting [5]) was 8.05.
In the same order, the values of `CC(C)n1cnc2c([C@](O)(c3ccc(C(F)(F)F)c(Cl)c3)C(F)(F)F)n(C)nc2c1=O` (single isomer, unassigned) [5-32] are 8.30, 8.07, 4.85 and 9.60.
Consider `Cn1nc2c(=O)n(CC(F)(F)F)cnc2c1[C@](O)(c1ccc(C(F)(F)F)c(Cl)c1)C(F)(F)F` [5-26, (R)-3-(1-(3-chloro-4-(trifluoromethyl)phenyl)-2,2,2-trifluoro-1-hydroxyethyl)-2-methyl-6-(2,2,2-trifluoroethyl)-2,6-dihydro-7H-pyrazolo[4,3-d]pyrimidin-7-one], for which the negative-log IC50 (pIC50) in test [1] is 7.77; in test [3] it was 7.60; in test [4], less than 4.52. The pEC50 in test [2] (setting [5]) is 9.41.
In the same order, the values of `CCn1ncc2c([C@@](O)(CC)c3ccc(C(F)(F)F)c(Cl)c3)n(C)nc2c1=O` (single isomer, unassigned) [2-19] are 8.16, 8.54, 4.96 and 9.46.
In the same order, the values of `Cn1nc2c(=O)n(C3CC3)cnc2c1[C@](N)(c1ccc(C(F)(F)F)c(Cl)c1)C1CC1` (single isomer, unassigned) [4-24] are 7.96, 8.06, 5.49 and 8.68.
The matching figures for `Cn1nc2c(=O)n(C3CC3)ncc2c1[C@](O)(c1ccc(C(F)(F)F)c(C#N)c1)C1CC1` (single isomer, unassigned) [2-7]: 7.64, 7.77, less than 4.52 and 8.38.
As for `Cn1nc2c(=O)n(C3CC3)cnc2c1[C@](O)(c1ccc(C(F)(F)F)c(C#N)c1)C(F)(F)F` (single isomer, unassigned) [5-19], the negative logarithm of the IC50 (pIC50) was 7.92 in test [1], 7.70 in test [3] and 4.77 in test [4]. Besides, the pEC50 in test [2] (72 h) was 9.46.
As to `CC[C@@](O)(c1ccc(C(F)(F)F)c(Cl)c1)c1c2cnn(C3CC3)c(=O)c2nn1C` (single isomer, unassigned) [2-15], the results for the pIC50 in test [1], in test [3] and in test [4] were 8.21, 8.01 and 5.77, respectively. Further, the negative-log EC50 (pEC50) in test [2] (setting [5]) was 9.49.
In the same order, the values of `Cn1nc2c(=O)n(C3CC3)cnc2c1[C@](C)(O)c1cnc(C(F)(F)F)c(Cl)c1` (single isomer, unassigned) [3-1] are 7.68, 8.10, less than 4.52 and 8.66.
In the same order, the values of `CC[C@@](N)(c1cnc(C(F)(F)F)c(Cl)c1)c1c2ccn(C3CC3)c(=O)c2nn1C` (single isomer, unassigned) [4-11] are 7.38, 7.39, 4.89 and 8.59.
On to `Cn1nc2c(=O)n(C3CC3)ccc2c1[C@](O)(c1ccc(C(F)(F)F)nc1)C1CC1` (single isomer, unassigned) [1-26], for which the negative logarithm of the IC50 (pIC50) in test [1] was 7.34; in test [3], 7.32; in test [4], less than 4.52. Moreover, the negative logarithm of the EC50 (pEC50) in test [2] (setting [5]) was 8.17.
The matching figures for `Cn1nc2c(=O)n(C3CC3)cnc2c1[C@](N)(c1ccc(C(F)(F)F)c(C#N)c1)C(F)(F)F` (single isomer, unassigned) [5-40]: 7.74, 7.66, less than 4.52 and 8.51.
The matching figures for `CC[C@@](O)(c1ccc(F)c(Cl)c1)c1c2cnn(C3CC3)c(=O)c2nn1C` (single isomer, unassigned) [2-17]: 8.08, 8.02, 5.60 and 8.77.
In the same order, the values of `Cn1nc2c(=O)n(C3CC3)cnc2c1[C@](O)(c1cnc(C(F)(F)F)c(Cl)c1)C1CC1` (single isomer, unassigned) [3-3] are 7.66, 8.08, less than 4.52 and 8.40.
Turning to `CCn1nc2c(=O)n(C3CC3)ncc2c1[C@@](O)(CC)c1cnc(C(F)(F)F)c(Cl)c1` (single isomer, unassigned) [2-3], the negative logarithm of the IC50 (pIC50) in test [1] was 7.54; in test [3], 7.96; in test [4], 5.57. In test [2] (setting [5]), this compound gave a negative logarithm of the EC50 (pEC50) of 8.00.
In the same order, the values of `Cn1nc2c(=O)n(C3CC3)ccc2c1[C@](O)(c1ccc(C(F)(F)F)c(C#N)c1)C1CC1` (single isomer, unassigned) [1-3] are 7.77, 7.77, less than 4.52 and 8.89.
